These results are taken from PMC3119515 (Bioorganic & medicinal chemistry, 2011).

What is called inhibition is the percentage by which the read-out fell short of the control. One may read the EC50 as the concentration giving half of the maximal effect. Read a low EC50 as higher potency in that assay. What is called GI50 is the concentration giving 50% growth inhibition. A high value points to lower sensitivity of the cells.

A value given as a limit tells only on which side of the number the result lay.

Data set [1] has as its system Yellow Fever Virus (YF-IRES-Luc). Kind of data set: microbe, parasite or virus in culture. Format: cell-based.
The target in data set [2] is fire-fly luciferase (Photinus pyralis, UniProt P08659, K549A/L550V/N119G/N50D/S548I). Kind of data set: Direct luciferase inhibition assay. Particulars: cells transfected with luciferase-pcDNA3; data not shown. Format: cell-based.
Sequence of fire-fly luciferase (P08659 whole entry N50D/N119G/S548I/K549A/L550V): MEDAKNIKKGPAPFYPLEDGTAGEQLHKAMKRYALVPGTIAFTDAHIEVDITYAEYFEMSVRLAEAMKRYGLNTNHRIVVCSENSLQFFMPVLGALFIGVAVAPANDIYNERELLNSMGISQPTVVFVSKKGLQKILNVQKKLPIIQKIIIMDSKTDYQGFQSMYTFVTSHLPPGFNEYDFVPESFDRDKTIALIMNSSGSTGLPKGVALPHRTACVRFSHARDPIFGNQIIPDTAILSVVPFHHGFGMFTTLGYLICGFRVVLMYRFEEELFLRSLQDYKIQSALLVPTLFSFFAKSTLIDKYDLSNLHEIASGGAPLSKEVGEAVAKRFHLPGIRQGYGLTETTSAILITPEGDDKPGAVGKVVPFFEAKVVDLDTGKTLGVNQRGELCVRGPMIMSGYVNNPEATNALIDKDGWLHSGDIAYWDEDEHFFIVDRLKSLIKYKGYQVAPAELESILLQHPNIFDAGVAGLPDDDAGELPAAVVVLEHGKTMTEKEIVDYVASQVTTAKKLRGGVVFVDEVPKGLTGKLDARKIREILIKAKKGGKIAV
A short description of data set [3]: In vitro hydrolytic stability assay utilizing rat plasma.
The test system of data set [4] is uninfected BHK cells. Format: cell-based, hamster.

As to `COC(=O)c1sc(-c2ccc(C(C)(C)C)cc2)nc1C` [Compound 5l], the “antiflaviviral activity (in words)” value in data set [1] was “inactive”.
The same measure, in the same setting: then `COC(=O)c1sc(Cc2ccccc2)nc1C` [Compound 5o], with “inactive”; and `COC(=O)c1sc(-c2ccccc2)nc1C(Br)Br` [Compound 6a, Methyl 4-(Dibromomethyl)-2-phenylthiazole-5-carboxylate], with “very weak antiflaviviral inhibitory activity”.
On the same count and under the same terms, the value for `COC(=O)c1sc(-c2cccc(Br)c2)nc1C(Br)Br` [Compound 6c, Methyl 2-(3-Bromophenyl)-4-(dibromomethyl)thiazole-5-carboxylate] was “weak activity”.
With `COC(=O)c1sc(-c2ccc(Cl)c(Cl)c2)nc1C(Br)Br` [Compound 6j, Methyl 4-(Dibromomethyl)-2-(3,4-dichlorophenyl)thiazole-5-carboxylate], the inhibition at 50 µM in data set [1] (Yellow fever virus, BHK, read-out: % Inhibition (reduction in luciferase activity)) is below 50%.
Regarding `CCCCc1ccc(-c2nc(C)c(C(=O)O)s2)cc1` [Compound 8, 2-(4-Butylphenyl)-4-methylthiazole-5-carboxylic Acid], in data set [1], the “antiflaviviral activity (in words)” value was “inactive”.
For the compound `CCCCc1ccc(-c2nc(C)c(/C(C)=N/NC(=N)N)s2)cc1` [Compound 12, 2-(1-(2-(4-Butylphenyl)-4-methylthiazol-5-yl)ethylidene)hydrazinecarboximidamide], the “reduction of luciferase activity” value in data set [2] is “No reduction of luciferase activity was observed”. For the same compound, the “half-life, times higher than the lead compound 2” value in data set [3] is listed as “around 6 times”.
“Methyl 4-Methyl-2-(naphthalen-2-yl)thiazole-5-carboxylate [Compound 5k]” displayed an EC50 in data set [1] of 35.7 ± 22.7 µM. In addition, in data set [1] (50 µM), the “% Inhibition (reduction in luciferase activity)” value is recorded as 78.4%. The same compound had a GI50 in data set [4] of 434 ± 23.3 µM.
